In patent US10653138B2, “Composition for attracting bed bugs” (London School of Hygiene & Tropical Medicine, priority 2015, dated 2020):

Key:
bed bugs [1] = conditions: cited from earlier work; for attraction of bed bugs to safe shelters: volatile components of aggregation pheromone
bed bug antennae = assay: Coupled gas chromatography-electroantennography (GC-EAG) of volatile extract from bed bug-exposed paper; parameters: species or system Cimex lectularius; conditions: for Electrophysiology Auto method: bullet = marked under the Auto method; for Responses Total: males plus females, 20 insects tested; for Responses Females: number of females giving an EAG response to the peak; for Responses Females / Responses Males: volatile extract 1 μL; for Responses Males: number of males giving an EAG response to the peak; for electroantennogram (EAG) response: result in words; for Visual inspection (no of responses) >5 / Visual inspection (no of responses) >10 / Visual inspection (no of responses) >15: threshold of individuals responding; for Visual inspection (no of responses) Response: total EAG responses, Table 8
Source text: Experimental insects, unless otherwise stated, were mated males and females of C. lectularius that had been fed 7 to 14 days previously on heparinised sheep blood. The electrodes used to make recordings were Ag/AgCl wires (diameter 0.37 mm) inserted into glass pipettes, made from borosilicate glass capillaries (outer diameter 2.0 mm; inner diameter 1.16 mm). The glass pipettes were filled with Ringers solution (7.55 g NaCl, 0.64 g KCl, 0.22 g CaCl2, 1.73 g MgCl2 g, 0.86 g NaHCO3 and 0.61 g Na3PO4 L^−1 water). The bed bug was then chilled on ice for one minute before dissection. Preparations were held in a continuous, humidified, charcoal filtered air flow ([…]) coming from a glass tube, which was positioned 5 mm from the antennal preparation. Once the antennal preparation and EAG equipment were in position the microscope light was switched off.
The GC used was a HP-680N, containing a HP-1 column (30 m×0.32 mm; film thickness, 0.52 μm) with a COC injector, hydrogen carrier gas and a FID. The oven temperature was maintained at 40° C. for two min and then programmed at 5° C. min^−1 to 100° C. and then at 10° C. […] to 250° C. The end of the column was inserted into the centre of the main air flow so that the eluent went over the antennal preparation. […] Amplification of the signals was set at ×10,000. Signals were analysed using the computer-based software package, EAD 2000 (Syntech®, The Netherlands). The volatile extract (1 μL) from an air entrainment of bed bug-exposed papers (see Example 1) was injected onto the column. A solution of n-alkanes (C7-C25, 1 μL of 100 ng μL^−1) in hexane was also analysed to calculate the retention indices (RI) of any EAG-active peaks for comparison with GC and coupled GC-MS traces (Equation 1).
Electroantennographic (EAG) responses from the coupled gas chromatography-electroantennographic (GC-EAG) analysis of the volatile extract collected using air entrainment were determined by visual appearance. Coupled GC-EAG traces were examined visually on a light box to identify EAG responses and match them to peaks on the GC traces. A combination of characteristics including the amplitude and shape of the deflection from the baseline were used to identify EAG responses. For example, an EAG response is usually of greater amplitude than the background noise and it has a characteristic negative deflection followed by a quick positive deflection resulting in a short sharp response often of similar shape and position as the corresponding peak on the GC trace. Responses were matched between males and females separately onto master traces for each sex. The EAG-active peaks were labelled from 1 to 21. Male and female master traces were then overlaid to identify where consistent responses occurred in both sexes. Five or more individuals responding at the same retention time on the GC trace was considered to be a consistent EAG response and the corresponding peak on the GC trace was considered to be EAG-active. Three thresholds were used: greater than 5, greater than 10 or greater than 15 individuals responding to the same GC peak or at the same retention time. The traces were then subjected to manual or automated statistical analysis.

bed bugs [2] = assay: Behavioural bioassay, dose responses of individual chemicals (Example 8); assay type: in vivo, Cimex lectularius; conditions: for dose response: 0.008× to 8000×; for doses on which further synthetic blends should focus: × relative to 8% natural standard (8×=1× standard)
Protocol: Methods: The behavioural bioassay was as described by Weeks et al. 2011 and recorded using EthoVision and the methodology described by Weeks et al. 2013. For each chemical, (E)-2-octenal, (RS)-1-octen-3-ol and nonanal, seven doses were tested from 0.008× to 8000×, along with three controls. Each replicate was completed as a block of 10 treatments including: We are referring here to either 0.001×, 0.01×, 0.1×, 1×, 10×, 100× or 1000× the dose of (E)-2-octenal found naturally in the aggregation pheromone. For instance, an “8% solution” refers to an 8% dose of volatile extract (with the various different ratios of individual component). In each block the order of the treatments and the position of the odour pot were randomized. 10 blocks were completed for each chemical (n=10).

bed bugs [3] = assay: Behavioural bioassay, refined synthetic blends (Example 9); assay type: in vivo, Cimex lectularius
Source text: The behavioural bioassay was as described by Weeks et al. 2011 and recorded using EthoVision and the methodology described by Weeks et al. 2013. Each replicate was completed as a block of 10 treatments including: • 1. Bed bug-exposed paper (positive control) • 2. Ether (negative control) • 3. Nonanal 80× • 4. E-2-octenal 800× • 5. Nonanal 80× and E-2-octenal 80× (80-80) • 6. Nonanal 80× and E-2-octenal 800× (80-800) • 7. Nonanal 80× and E-2-octenal 8000× (80-8000) • 8. Nonanal 8× and E-2-octenal 800× (8-800) • 9. Nonanal 8× and E-2-octenal 8000× (8-8000) • 10. Nonanal 80×, E-2-octenal 80× and 1-octen-3-ol 80× (80-80-80)
We are referring here to either 1×, 10×, 100× or 1000× the dose of Nonanal or (E)-2-octenal found naturally in the aggregation pheromone. For instance, an “8% solution” refers to an 8% dose of volatile extract (with the various different ratios of individual component).
Therefore, 8× means that it is 1 of standard volatiles, 8×=1× standard, 80×=10× standard and 800×=100× standard. 8000×=1000× standard.
In each block the order of the treatments and the position of the odour pot were randomized. 18 blocks were completed.

Row | Structure (SMILES) | attraction of bed bugs to safe shelters (bed bugs [1]) | Electrophysiology Auto method (bed bug antennae) | Responses Total (bed bug antennae) | Responses Females (bed bug antennae) | Responses Males (bed bug antennae) | electroantennogram (EAG) response (bed bug antennae) | Visual inspection (no of responses) >5 (bed bug antennae) | Visual inspection (no of responses) >10 (bed bug antennae) | Visual inspection (no of responses) Response (bed bug antennae) | Visual inspection (no of responses) >15 (bed bug antennae) | time spent above the odour pot compared to zero (bed bugs [2]; all doses 0.008× to 8000×) | arrestment of bed bugs (bed bugs [1]; less-volatile component) | zone duration compared to zero (bed bugs [3]; nonanal 80) | dose response (bed bugs [2]) | doses on which further synthetic blends should focus (bed bugs [2]) | time spent over the odour pot compared with blends (bed bugs [3]; (E)-2-octenal 800 treatment)
1 | CCC/C=C/C=O [(E)-2-hexenal] | attract bed bugs to safe shelters |  |  |  |  |  |  |  |  |  |  |  |  |  |  | 
2 | CCCCC(C)=O [2-hexanone] | attract bed bugs to safe shelters |  |  |  |  |  |  |  |  |  |  |  |  |  |  | 
3 | CCCCCCC=O (single isomer, unassigned) [Heptanal, heptanal] |  | • | 13 | 7 | 6 | EAG-active | • (>5) | • (>10) | 13 |  |  |  |  |  |  | 
4 | CCCCCC/C=C/C=O [(E)-2-Nonenal, (E)-2-nonenal] |  | • | 13 | 8 | 5 | EAG-active | • (>5) | • (>10) | 13 |  |  |  |  |  |  | 
5 | CCCCCCCCC(C)=O [2-Decanone, 2-decanone] |  |  | 9 | 4 | 5 | EAG-active | • (>5) |  | 9 |  |  |  |  |  |  | 
6 | CSSSC [dimethyl trisulfide] | attract bed bugs to safe shelters |  |  |  |  |  |  |  |  |  |  |  |  |  |  | 
7 | CCCCCCCCCCCC [Dodecane, dodecane] |  | • | 16 | 8 | 8 | EAG-active | • (>5) | • (>10) | 16 | • (>15) |  |  |  |  |  | 
8 | C=C1/C=C/[C@H](C(C)C)CC/C(C)=C/CC1 [(S)-(−)-Germacrene D, (S)-(−)-germacrene D] |  |  | 14 | 7 | 7 | EAG-active | • (>5) | • (>10) | 14 |  |  |  |  |  |  | 
9 | C=CC(O)CCCCC (racemic) [(RS)-1-Octen-3-ol, (RS)-1-octen-3-ol] |  |  | 11 | 7 | 4 | EAG-active | • (>5) | • (>10) | 11 |  | none of the (RS)-1-octen-3-ol doses resulted in significantly more |  |  |  |  | 
10 | NCCc1c[nH]cn1 [histamine] |  |  |  |  |  |  |  |  |  |  |  | causes their arrestment upon contact |  |  |  | 
11 | CCCCCCCCCC=O [Decanal, decanal] |  |  | 12 | 5 | 7 | EAG-active | • (>5) | • (>10) | 12 |  |  |  |  |  |  | 
12 | CSSC [dimethyl disulfide] | attract bed bugs to safe shelters |  |  |  |  |  |  |  |  |  |  |  |  |  |  | 
13 | CCCCOCCOCCOC(C)=O [2-(2-Butoxyethoxy)-acetate ethanol, 2-(2-butoxyethoxy)ethyl acetate] |  |  | 12 | 5 | 7 | EAG-active | • (>5) | • (>10) | 12 |  |  |  |  |  |  | 
14 | CCCCCCCCC=O [Nonanal, nonanal] |  | • | 17 | 9 | 8 | EAG-active | • (>5) | • (>10) | 17 | • (>15) |  |  | significantly greater in time spent above the odour pot in the odour zone | clear dose response was observed | 8-80 × | 
15 | CCCCC/C=C/C=O (single isomer, unassigned) [(E)-2-octenal] | attract bed bugs to safe shelters | • | 16 | 8 | 8 | EAG-active | • (>5) | • (>10) | 16 | • (>15) |  |  |  | clear dose response was observed | 800-8000 × | significantly lower in time spent over the odour pot than 80-800 and 8-800
